In ChEMBL document CHEMBL1201862, “PubChem BioAssay data set” (2004):
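A five-concentration, 48-hour dose response in 96-well plates underlies each endpoint, interpolated linearly between surrounding concentrations. The concentration for 50% growth inhibition is given as GI50.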 Active and inactive are the calls of the source. Cut-off read from the data, not from the text of the source: active = GI50 up to about 1.1 µM and inactive = higher.

Assays:
Assay in all cases: growth of human tumour cells (NCI), 48 h
IGROV-1 = test system: IGROV-1
UACC-62 = test system: UACC-62
NCI-H460 = test system: NCI-H460
HL-60 = test system: HL-60
786-0 = test system: 786-0
Malme-3M = test system: Malme-3M
NCI-H522 = test system: NCI-H522
MDA-N = test system: MDA-N
OVCAR-4 = test system: OVCAR-4
SK-OV-3 = test system: SK-OV-3
MDA-MB-435 = test system: MDA-MB-435
SNB-19 = test system: SNB-19
U-251 = test system: U-251
MDA-MB-231 = test system: MDA-MB-231
SR = test system: SR
NCI-H226 = test system: NCI-H226
SN12C = test system: SN12C
RPMI-8226 = test system: RPMI-8226
NCI/ADR-RES = test system: NCI/ADR-RES
OVCAR-8 = test system: OVCAR-8

Row | Structure (SMILES) | GI50 (IGROV-1) | GI50 (UACC-62) | GI50 (NCI-H460) | GI50 (HL-60) | GI50 (786-0) | GI50 (Malme-3M) | GI50 (NCI-H522) | GI50 (MDA-N) | GI50 (OVCAR-4) | GI50 (SK-OV-3) | GI50 (MDA-MB-435) | GI50 (SNB-19) | GI50 (U-251) | GI50 (MDA-MB-231) | GI50 (SR) | GI50 (NCI-H226) | GI50 (SN12C) | GI50 (RPMI-8226) | GI50 (NCI/ADR-RES) | GI50 (OVCAR-8)
1 | O=C1NC(=S)N/C1=C\c1ccc(Br)s1 | 93.5 µM (inactive) | 28 µM (inactive) | 70.5 µM (inactive) | 0.861 µM (active) | > 100 µM (inactive) | > 100 µM (inactive) | 82.8 µM (inactive) | > 100 µM (inactive) | 53.1 µM (inactive) | > 100 µM (inactive) | 58.6 µM (inactive) | 90.2 µM (inactive) | > 100 µM (inactive) | > 100 µM (inactive) | 33.4 µM (inactive) | 84.9 µM (inactive) | > 100 µM (inactive) | 27.7 µM (inactive) | – | –
2 | CC(=O)OC1=C(c2ccccc2)S(=O)(=O)c2ccccc21 | > 100 µM (inactive) | > 100 µM (inactive) | > 100 µM (inactive) | > 100 µM (inactive) | > 100 µM (inactive) | > 100 µM (inactive) | > 100 µM (inactive) | – | > 100 µM (inactive) | – | > 100 µM (inactive) | > 100 µM (inactive) | > 100 µM (inactive) | > 100 µM (inactive) | > 100 µM (inactive) | > 100 µM (inactive) | – | > 100 µM (inactive) | > 100 µM (inactive) | > 100 µM (inactive)
3 | O=C(Nc1ccc(C(F)(F)F)cc1[N+](=O)[O-])c1cccnc1 | 6.44 µM (inactive) | 3.76 µM (inactive) | 3.15 µM (inactive) | 3.72 µM (inactive) | 10.7 µM (inactive) | 2.15 µM (inactive) | 3.94 µM (inactive) | – | 4.43 µM (inactive) | 6.35 µM (inactive) | 0.537 µM (active) | 9.48 µM (inactive) | 5 µM (inactive) | 17.4 µM (inactive) | 1.01 µM (active) | 22.8 µM (inactive) | 7.83 µM (inactive) | 5.08 µM (inactive) | 6.9 µM (inactive) | –
4 | COc1cc(/C=C2\NC(=S)C3Cc4c(OC)c(C)c(OC)c(OC)c4C2N3C)c(OC)c(C)c1OC (centres undefined) | > 100 µM (inactive) | 98.4 µM (inactive) | 14.9 µM (inactive) | 25.2 µM (inactive) | 73.1 µM (inactive) | 29 µM (inactive) | 20 µM (inactive) | – | > 100 µM (inactive) | > 100 µM (inactive) | – | 65.3 µM (inactive) | 45.1 µM (inactive) | – | 10.4 µM (inactive) | 22.6 µM (inactive) | > 100 µM (inactive) | 25.6 µM (inactive) | – | 32.5 µM (inactive)
5 | COC1(OC)N=C(N)C2(C#N)C(C)CC(=O)N(N(C)C)C12C#N (centres undefined) | > 100 µM (inactive) | > 100 µM (inactive) | – | > 100 µM (inactive) | > 100 µM (inactive) | > 100 µM (inactive) | > 100 µM (inactive) | – | – | > 100 µM (inactive) | > 100 µM (inactive) | > 100 µM (inactive) | > 100 µM (inactive) | > 100 µM (inactive) | > 100 µM (inactive) | > 100 µM (inactive) | > 100 µM (inactive) | > 100 µM (inactive) | > 100 µM (inactive) | > 100 µM (inactive)
6 | CCC(C)[C@H](NC(=O)[C@H](Cc1ccccc1)NC(=O)N(CC)c1ccccc1)C(=O)N[C@@H](CC(C)C)C(=O)OC (some centres undefined) | 20.4 µM (inactive) | 48 µM (inactive) | – | – | 40.6 µM (inactive) | 31 µM (inactive) | – | 45.1 µM (inactive) | 94.4 µM (inactive) | > 100 µM (inactive) | 24 µM (inactive) | 35.4 µM (inactive) | 38.5 µM (inactive) | 27.7 µM (inactive) | – | 18 µM (inactive) | 38.6 µM (inactive) | 8.93 µM (inactive) | > 100 µM (inactive) | 34 µM (inactive)
7 | Cc1ccccc1/N=N/c1c(-c2ccccc2)nn(C(=O)CC(=O)Nc2cccc(Cl)c2)c1-c1ccccc1 | > 31.6 µM (inactive) | 22 µM (inactive) | 19.6 µM (inactive) | 17.3 µM (inactive) | 18.5 µM (inactive) | 37.9 µM (inactive) | > 10 µM (inactive) | – | 22.6 µM (inactive) | 27.7 µM (inactive) | – | 36.4 µM (inactive) | 13.7 µM (inactive) | – | 9.1 µM (inactive) | 16 µM (inactive) | 15.8 µM (inactive) | 12.1 µM (inactive) | – | 21.3 µM (inactive)
8 | CC1(C)[C@H]2CC[C@]1(C)[C@H](OC(=O)NNC(=O)O[C@@H]1C[C@@H]3CC[C@@]1(C)C3(C)C)C2 | 15.4 µM (inactive) | 17.4 µM (inactive) | 13.7 µM (inactive) | 7.01 µM (inactive) | 17.8 µM (inactive) | 16.1 µM (inactive) | 13 µM (inactive) | 11.6 µM (inactive) | 11.4 µM (inactive) | 14.3 µM (inactive) | 21.2 µM (inactive) | 19.5 µM (inactive) | 16 µM (inactive) | 13 µM (inactive) | – | 16.7 µM (inactive) | 12.2 µM (inactive) | 10.5 µM (inactive) | – | –
9 | C=CC1(C(=O)O)CCC(C(C)(C)C)CC1 (centres undefined) | > 100 µM (inactive) | > 100 µM (inactive) | > 100 µM (inactive) | > 100 µM (inactive) | > 100 µM (inactive) | > 100 µM (inactive) | 86.1 µM (inactive) | – | > 100 µM (inactive) | > 100 µM (inactive) | – | > 100 µM (inactive) | > 100 µM (inactive) | – | > 100 µM (inactive) | > 100 µM (inactive) | > 100 µM (inactive) | > 100 µM (inactive) | – | > 100 µM (inactive)
10 | Cc1ccc(S(=O)(=O)N/N=c2/sc3ccccc3n2C)cc1 | > 100 µM (inactive) | > 100 µM (inactive) | > 100 µM (inactive) | > 100 µM (inactive) | > 100 µM (inactive) | > 100 µM (inactive) | 33.7 µM (inactive) | – | > 100 µM (inactive) | > 100 µM (inactive) | > 100 µM (inactive) | > 100 µM (inactive) | > 100 µM (inactive) | > 100 µM (inactive) | > 100 µM (inactive) | > 100 µM (inactive) | > 100 µM (inactive) | > 100 µM (inactive) | > 100 µM (inactive) | > 100 µM (inactive)
11 | COc1cc2c(cc1OC)[C@H]1C(COC(=O)c3ccccc3)CS/C(=N/c3ccccc3)N1CC2 (some centres undefined) | > 100 µM (inactive) | > 100 µM (inactive) | 91.8 µM (inactive) | 5.31 µM (inactive) | > 100 µM (inactive) | > 100 µM (inactive) | 2.34 µM (inactive) | – | 5.15 µM (inactive) | > 100 µM (inactive) | – | 21 µM (inactive) | 24.3 µM (inactive) | – | 5.71 µM (inactive) | 36.3 µM (inactive) | > 100 µM (inactive) | 4.33 µM (inactive) | – | > 100 µM (inactive)
12 | Cn1ccnc1Oc1ccc(Cl)cc1 | – | 11.1 µM (inactive) | 30.3 µM (inactive) | 0.631 µM (active) | 11.5 µM (inactive) | 2.28 µM (inactive) | 2.28 µM (inactive) | – | 6.12 µM (inactive) | 47.4 µM (inactive) | 12.4 µM (inactive) | 33 µM (inactive) | 17.9 µM (inactive) | 14.8 µM (inactive) | – | 13 µM (inactive) | 13.6 µM (inactive) | 0.49 µM (active) | 16.7 µM (inactive) | 7.69 µM (inactive)
13 | COC(=O)C(CCCCCCCC(C(=O)OC)C1=Nc2nnc(N)n2C1=O)C1=Nc2nnc(N)n2C1=O (centres undefined) | > 100 µM (inactive) | > 100 µM (inactive) | > 100 µM (inactive) | > 100 µM (inactive) | > 100 µM (inactive) | > 100 µM (inactive) | > 100 µM (inactive) | – | > 100 µM (inactive) | > 100 µM (inactive) | – | > 100 µM (inactive) | > 100 µM (inactive) | – | > 100 µM (inactive) | > 100 µM (inactive) | > 100 µM (inactive) | 4.07 µM (inactive) | – | 94.8 µM (inactive)
14 | O=c1[nH]nc(Cc2ccc(Cl)cc2)n1Nc1ccccc1 | > 100 µM (inactive) | > 100 µM (inactive) | > 100 µM (inactive) | – | 73.6 µM (inactive) | > 100 µM (inactive) | – | > 100 µM (inactive) | > 100 µM (inactive) | – | > 100 µM (inactive) | > 100 µM (inactive) | > 100 µM (inactive) | > 100 µM (inactive) | – | > 100 µM (inactive) | > 100 µM (inactive) | – | > 100 µM (inactive) | > 100 µM (inactive)
15 | C[C@@H]1CCC2C(C)(C)C(/C=C\C=O)C3(C)OC213 (some centres undefined) | 24.6 µM (inactive) | 53.2 µM (inactive) | 42 µM (inactive) | – | 28.8 µM (inactive) | 24.5 µM (inactive) | 46 µM (inactive) | 26 µM (inactive) | 54.5 µM (inactive) | 44.6 µM (inactive) | 27.5 µM (inactive) | 45.4 µM (inactive) | 28.6 µM (inactive) | 49.2 µM (inactive) | – | – | – | 28.7 µM (inactive) | 30 µM (inactive) | 20.2 µM (inactive)
16 | COc1ccc([S+]([O-])Cc2cc(OC)c(OC)c(OC)c2)cc1 (centres undefined) | > 100 µM (inactive) | 42.4 µM (inactive) | 33.2 µM (inactive) | > 10 µM (inactive) | > 100 µM (inactive) | 58.3 µM (inactive) | 51.3 µM (inactive) | – | > 100 µM (inactive) | > 100 µM (inactive) | 5.96 µM (inactive) | 69.7 µM (inactive) | 60.3 µM (inactive) | 84.5 µM (inactive) | 37.8 µM (inactive) | > 100 µM (inactive) | 54.8 µM (inactive) | 42.2 µM (inactive) | 40.7 µM (inactive) | 62.5 µM (inactive)
